Assay results reported in patent publication US20210393636A1, “TREATMENT OF CNS AND DEVELOPMENTAL DISORDERS USING HIGH DOSE 5-FORMYL-(6S)-TETRAHYDROFOLATE” (priority 2019, published 2021).

Columns and labels:
[1] = Folate absorption in serum after single high-dose oral administration of different folates (Example 1)
Experimental: For this study, 4 mg/kg folate was administered as a single dose to 250-300 g male Wistar rats. […] For each form of folate 4 time points of 30 min, 1 h, 2 h and 4 h were evaluated. For each time point 2 rats were used. The folate form dissolved in 0.5 ml buffered saline was administered orally using a blunt needle attached to a 1 ml syringe. The rats were euthanized by CO2 inhalation.
Blood was drawn cardiac puncture, allowed to clot for 30 min, serum separated, diluted in equal volume of 4% ascorbate pH 7.2 and kept frozen at −20 C. Folate forms in the serum was determined by HPLC and the peaks were quantified by comparing to known standards as described below.
Folate standards (5-MTHF, FA, THF and Formyl-THF) and 13C-labeled stable isotope internal standards (13C5-5-MTHF, 13C5-FA and 13C-Formyl-THF) were obtained from Schircks Laboratories (Switzerland). Formic acid, ascorbic acid and dithiothreitol (DTT) were obtained from Fluka and Optima LC-MS grade methanol from Fisher Scientific. Stock standards for each folate metabolite and internal standards were prepared as 1 mmol/L solutions in water containing 2 mg/mL ascorbic acid and stored at −80° C. Microtiter plates used for were purchased from NUNC.
Liquid chromatography electrospray ionization mass spectrometry (LC-ESI-MS/MS) analysis of plasma 5-MTHF, FA, THF, Formyl-THF was performed on a Sciex 5500QTRAP mass spectrometer (Foster City, Calif., USA) coupled with a Shimadzu ultra-high pressure Nexera chromatograph system (Kyoto, Japan). The MS/MS experiments were performed under positive electrospray ionization (+ESI) with multiple-reaction monitoring (MRM) using a Turbolon Spray electrospray source operating at a voltage of 5.5 kV and desolvation temperature of 500° C. The calibration curve was prepared in water containing 2 mg/mL ascorbic acid over a range of 12.5-400 nmol/L for each folate analyte.
Sample preparation involved combining 50 µl of blank, standard, control or sample with 10μ1 62.5 mM dithiothreitol, 20 mg/ml ascorbic acid and 2.5 μM 13C5-5-MTHF, 13C5-FA, 13C-Formyl-THF in 1.5 mL Eppendorf tubes, mixed by vortex and incubated for 10 minutes at room temperature in the dark. Next, samples were deproteinized with 5 volumes of methanol containing 2 mg/ml of ascorbic acid and vortexed and centrifuged at 14800 rpm for 10 minutes. Supernatant was loaded in a 96-well microtiter plate for analysis. The samples were analyzed following injection of 10 μL of extract on a Synergi Hydro 4μ 150×3 mm with a 4×2 mm SecurityGuard column (Phenomenex, Calif., USA) maintained at 40° C. (Phenomenex) and eluted in a gradient with buffer A (100% water with 0.1% formic acid) and buffer B (100% Methanol with 0.1% formic acid). The flow rate was 0.5 mL/min, with a gradient over a total run time of 6 min: 0.0-2.0 min, 0-100% B; 2.5 min, 100% B; 2.6-6.0 min, 0% B.
Total analytical analysis, including column re-equilibration, was 6 minutes. Eluent flow from the column was diverted to waste at the beginning and end of each run and was only directed to the source for the period from 1.5-3.5 minutes. The LC-MS/MS data was acquired and processed using Analyst 1.5.2 software (Sciex).
Values reported include both D- and L-forms.

[2] = Total folates in serum 24 h after oral administration of folate forms (Example 2); format: in vivo, rats; design: Total Folates in Serum (total 5-MTHF D- and L- plus folic acid): unit not given here; settings: for Total Folates in Serum (total 5-MTHF D- and L- plus folic acid): 4 mg/kg oral, 24 h
Experimental: (§1) This study evaluated the difference in folate absorption in non-pregnant rats, pregnant rats, pregnant rats injected with a control antibody, and pregnant rats injected with antibody to the folate receptor alpha. Eight (8) rats were assigned to each group for a total of thirty-two (32) rats. Two rats within each group were administered a single oral dose of PGA, 5-methyl-(6S)-THF, folinic acid or 5-formyl-(6S)-THF as a liquid solution and sacrificed at 24-hours to evaluate folate absorption patterns. The total amount of each form of folate administered to each rat was 4 mg/kg.
Serum was withdrawn immediately before the rat was sacrificed. For extraction of folate from serum, an aliquot of the serum was diluted in 3 volumes of phosphate buffer pH 5.5, placed in a boiling water bath for 10 min, cooled, the protein precipitate separated by centrifugation and the clear supernatant was assayed for folate concentration.

[3] = Tissue distribution of folates 24 h after oral administration of folate forms (Example 2); format: in vivo, rats; settings: for Total 5-MTHF + PGA in Brain: derived from cortex and cerebellum
Experimental: as §1
Additional analyses were performed in various tissues of the pregnant and non-pregnant rats. For tissues other than serum, each tissue was collected, weighed and stored at −20 C. For the folate assay each tissue was suspended in 3 volumes of phosphate buffer containing 2% ascorbic acid pH 7.4 and homogenized using a polytron probe. An aliquot of this homogenate was diluted 10 fold in PO4 buffer PH 5.5 containing 0.2% ascorbic acid, in a glass tube, sealed and placed in a boiling water bath for 10 min. The tube was cooled to room temperature, precipitate removed by centrifugation and the clear supernatant assayed for folate. Brain concentrations were derived from cortex and cerebellum.

[4] = Tissue distribution of folates 24 h after oral administration of folate forms to rat pups, with and without FR Ab (Example 3); format: in vivo; settings: for Folate (mean), Cerebellum / Folate (mean), Cerebrum / Folate (mean), Kidney / Folate (mean), Liver: PND 21 rat pups, 4 mg/kg oral, 24 h
Experimental: To determine tissue distribution of orally administered folate forms in young rat pups and study the effect of folate receptor antibodies on this distribution. PND 21 rat pups weighing about 50 g were administered folate forms orally at a dose of 4 mg/kg. Animals were euthanized after 24 h and tissues collected for analyzing total methylfolate in each tissue to provide a measure of normal distribution.

[5] = serum, 4 mg/kg single oral dose, 0.5 hr
[6] = serum, 4 mg/kg single oral dose, 1 hr
[7] = serum, 4 mg/kg single oral dose, 2 hr
[8] = serum, 4 mg/kg single oral dose, 4 hr
[9] = non-pregnant rats, without antibody, 4 mg/kg oral, 24 h
[10] = pregnant rats, + Control IgG, 4 mg/kg oral, 24 h
[11] = pregnant rats, + FRAb, 4 mg/kg oral, 24 h
[12] = pregnant rats, w/o IgG, 4 mg/kg oral, 24 h
[13] = male, Wistar, rat, in vivo, po, 4 mg/kg
[14] = male, Wistar, rat, in vivo, po, 4 mg/kg, 0.5 h
[15] = male, Wistar, rat, in vivo, po, 4 mg/kg, 1 h
[16] = male, Wistar, rat, in vivo, po, 4 mg/kg, 2 h
[17] = male, Wistar, rat, in vivo, po, 4 mg/kg, 4 h

SMILES: Nc1nc2c(c(=O)[nH]1)N(C=O)[C@@H](CNc1ccc(C(=O)N[C@@H](CCC(=O)O)C(=O)O)cc1)CN2 [5-formyl-(6S)-tetrahydrofolate]
- serum THF and 5-MTHF compared to folinic acid ([1]; especially at one hour): Much better
- THF generation and total uptake compared to 5-methyl-(6S)-THF administration ([1]; serum, 4 mg/kg oral): much greater
- 5-FoTHF [1, 5]: 68.2 ng/mL
- THF [1, 5]: 22.9 ng/mL
- Total Uptake [1, 5]: 252.6 ng/mL
- 5-MTHF ([1]; serum, 4 mg/kg single oral dose, 0.5 hr, D- and L-forms): 161.6 ng/mL
- 5-FoTHF [1, 6]: 97.3 ng/mL
- THF [1, 6]: 35.8 ng/mL
- Total Uptake [1, 6]: 375.0 ng/mL
- 5-MTHF ([1]; serum, 4 mg/kg single oral dose, 1 hr, D- and L-forms): 241.9 ng/mL
- 5-FoTHF [1, 7]: 19.7 ng/mL
- THF [1, 7]: 9.0 ng/mL
- Total Uptake [1, 7]: 162.9 ng/mL
- 5-MTHF ([1]; serum, 4 mg/kg single oral dose, 2 hr, D- and L-forms): 144.1 ng/mL
- 5-FoTHF [1, 8]: 7.0 ng/mL
- THF [1, 8]: 39.1 ng/mL
- Total Uptake [1, 8]: 216.1 ng/mL
- 5-MTHF ([1]; serum, 4 mg/kg single oral dose, 4 hr, D- and L-forms): 173.5 ng/mL
- Total Folates in Serum (total 5-MTHF D- and L- plus folic acid) ([2]; Non-pregnant rats): 27.5
- concentrations of total folates in serum compared to other folate forms ([2]; especially pregnant rats injected with folate receptor antibody): superior concentrations of total folates
- Total Folates in Serum (total 5-MTHF D- and L- plus folic acid) ([2]; pregnant rats, Control Ab + Form): 247.1
- Total Folates in Serum (total 5-MTHF D- and L- plus folic acid) ([2]; pregnant rats, FRAb + Form): 228.8
- Total Folates in Serum (total 5-MTHF D- and L- plus folic acid) ([2]; pregnant rats, Form Only): 88.9
- concentrations of folates in ovary, brain and cerebellum compared to 5-methyl-6S-THF ([3]; non-pregnant rats without folate receptor antibody): much better concentrations of folates
- Total 5-MTHF + PGA in Cerebellum [3, 9]: 8.2
- Total 5-MTHF + PGA in Cortex [3, 9]: 1.5
- Total 5-MTHF + PGA in Kidney [3, 9]: 20.4
- Total 5-MTHF + PGA in Liver [3, 9]: 93.0
- Total 5-MTHF + PGA in Ovary [3, 9]: 9.8
- Total 5-MTHF + PGA in Brain [3, 9]: 4.8
- folate concentrations in placenta and embryo compared to 5-methyl-6S-THF or folinic acid ([3]; pregnant rats without folate receptor antibody): much better folate concentrations
- Total 5-MTHF + PGA in Embryo [3, 10]: 2.8 ng/mg
- Total 5-MTHF + PGA in Kidney [3, 10]: 19.8 ng/mg
- Total 5-MTHF + PGA in Liver [3, 10]: 38.2 ng/mg
- Total 5-MTHF + PGA in Ovary [3, 10]: 7.1 ng/mg
- Total 5-MTHF + PGA in Placenta [3, 10]: 3.3 ng/mg
- Total 5-MTHF + PGA in Brain [3, 10]: 4.8 ng/mg
- Total 5-MTHF + PGA in Embryo [3, 11]: 2.3 ng/mg
- Total 5-MTHF + PGA in Kidney [3, 11]: 14.3 ng/mg
- Total 5-MTHF + PGA in Liver [3, 11]: 39.1 ng/mg
- Total 5-MTHF + PGA in Ovary [3, 11]: 3.2 ng/mg
- Total 5-MTHF + PGA in Placenta [3, 11]: 3.0 ng/mg
- Total 5-MTHF + PGA in Brain [3, 11]: 3.5 ng/mg
- Total 5-MTHF + PGA in Embryo [3, 12]: 7.2 ng/mg
- Total 5-MTHF + PGA in Kidney [3, 12]: 20.2 ng/mg
- Total 5-MTHF + PGA in Liver [3, 12]: 44.8 ng/mg
- Total 5-MTHF + PGA in Ovary [3, 12]: 9.3 ng/mg
- Total 5-MTHF + PGA in Placenta [3, 12]: 9.0 ng/mg
- Total 5-MTHF + PGA in Brain [3, 12]: 2.0 ng/mg
- Folate (mean), Cerebellum ([4]; + FRAb (100 ug IP 24 h prior)): 69.5 ng/mg
- Folate (mean), Cerebrum ([4]; + FRAb (100 ug IP 24 h prior)): 13.2 ng/mg
- Folate (mean), Kidney ([4]; + FRAb (100 ug IP 24 h prior)): 48.7 ng/mg
- Folate (mean), Liver ([4]; + FRAb (100 ug IP 24 h prior)): 133.44 ng/mg
- Folate (mean), Cerebellum ([4]; no FRAb): 93.3 ng/mg
- Folate (mean), Cerebrum ([4]; no FRAb): 15.3 ng/mg
- Folate (mean), Kidney ([4]; no FRAb): 52.1 ng/mg
- Folate (mean), Liver ([4]; no FRAb): 80.0 ng/mg
- change of folates in the brain on antibody administration ([4]; antibody-treated pups vs pups without antibody): The opposite is observed
- folate concentrations in cerebellum and cerebrum compared to 5-methyl-6S-THF ([4]; rat pups with and without the antibody): much higher folate concentrations

SMILES: Nc1nc2ncc(CNc3ccc(C(=O)N[C@@H](CCC(=O)O)C(=O)O)cc3)nc2c(=O)[nH]1 [Folic Acid, pteroylglutamic acid]
- concentration at 0.5 h [1, 13]: 42.4 ng/mL
- concentration at 1 h [1, 13]: 236 ng/mL
- concentration at 2 h [1, 13]: 134 ng/mL
- concentration at 4 h [1, 13]: 121 ng/mL
- 5-MTHF [1, 14]: 72.8 ng/mL
- THF [1, 14]: 10.7 ng/mL
- Total Uptake [1, 14]: 126.0 ng/mL
- 5-MTHF [1, 15]: 112.9 ng/mL
- THF [1, 15]: 5.9 ng/mL
- Total Uptake [1, 15]: 354.3 ng/mL
- 5-MTHF [1, 16]: 101.4 ng/mL
- THF [1, 16]: 7.9 ng/mL
- Total Uptake [1, 16]: 243.3 ng/mL
- 5-MTHF [1, 17]: 109.7 ng/mL
- THF [1, 17]: 22.4 ng/mL
- Total Uptake [1, 17]: 252.7 ng/mL
